Columns and labels:
Type in all cases: binding
Set-up in all cases: KINOMEscan: ABL1(F317L)-phosphorylated / KINOMEscan: ABL1(H396P)-nonphosphorylated / KINOMEscan: ABL1(H396P)-phosphorylated / KINOMEscan: ABL1(M351T)-phosphorylated / KINOMEscan: ABL1(T315I)-phosphorylated / KINOMEscan: ABL1-nonphosphorylated / KINOMEscan: ABL1-phosphorylated / KINOMEscan: ACVR2A / KINOMEscan: ACVR2B / KINOMEscan: ADCK3 / KINOMEscan: ADCK4 / KINOMEscan: AKT1 / KINOMEscan: AKT3 / KINOMEscan: ALK / KINOMEscan: ARK5 / KINOMEscan: AURKA / KINOMEscan: AURKC / KINOMEscan: BIKE / KINOMEscan: BMPR1A / KINOMEscan: BMPR1B / KINOMEscan: BMX / KINOMEscan: BRK / KINOMEscan: BRSK1 / KINOMEscan: BRSK2 / KINOMEscan: CAMK1 / KINOMEscan: CAMK1D / KINOMEscan: CAMK1G / KINOMEscan: CAMK2A / KINOMEscan: CAMK2B / KINOMEscan: AAK1 / KINOMEscan: CAMK2D / KINOMEscan: CAMK2G / KINOMEscan: ABL1(F317I)-nonphosphorylated / KINOMEscan: ABL1(F317I)-phosphorylated / KINOMEscan: ABL1(F317L)-nonphosphorylated: unit: % Ctrl
panel of 442 kinases [1] = molecular target: T1, panel of 442 kinases (Homo sapiens, UniProt Q15569); conditions: kinase TESK1; compound concentration 10 µM
T1 construct: purchased KINOMEscan
Excerpt: (§1) We assessed the selectivity of members of this scaffold using the KINOMEscan methodology across a near comprehensive panel of 442 kinases [[18,27]].

panel of 442 kinases [2] = molecular target: T2, panel of 442 kinases (Homo sapiens, UniProt O60331); conditions: Compound Concentration 10 µM
T2 construct: purchased KINOMEscan
Excerpt: as §1

panel of 442 kinases [3] = molecular target: T3, panel of 442 kinases (Homo sapiens, UniProt Q8IU85); conditions: Compound Concentration 10 µM
T3 construct: purchased KINOMEscan
Excerpt: as §1

panel of 442 kinases [4] = molecular target: T4, panel of 442 kinases (Homo sapiens, UniProt P10721); conditions: Compound Concentration 10 µM
T4 construct: purchased KINOMEscan
Excerpt: as §1

T1 sequence (Q15569 whole entry): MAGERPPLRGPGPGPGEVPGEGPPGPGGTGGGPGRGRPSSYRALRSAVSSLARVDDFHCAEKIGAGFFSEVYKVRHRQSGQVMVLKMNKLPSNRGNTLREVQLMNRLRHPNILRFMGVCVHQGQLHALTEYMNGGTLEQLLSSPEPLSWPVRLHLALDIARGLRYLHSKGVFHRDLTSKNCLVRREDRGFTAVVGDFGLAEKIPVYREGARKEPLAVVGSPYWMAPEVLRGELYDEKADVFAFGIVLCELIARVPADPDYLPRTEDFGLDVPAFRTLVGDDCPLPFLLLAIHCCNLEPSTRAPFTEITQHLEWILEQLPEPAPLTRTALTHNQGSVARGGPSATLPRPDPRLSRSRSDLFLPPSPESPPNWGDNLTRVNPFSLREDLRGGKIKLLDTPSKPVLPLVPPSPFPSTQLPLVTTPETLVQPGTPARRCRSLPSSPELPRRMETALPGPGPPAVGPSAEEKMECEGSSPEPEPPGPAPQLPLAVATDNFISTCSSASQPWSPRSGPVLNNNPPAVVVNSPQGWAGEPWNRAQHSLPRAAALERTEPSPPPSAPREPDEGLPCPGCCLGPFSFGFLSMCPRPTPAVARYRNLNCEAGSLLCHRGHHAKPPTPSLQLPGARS
T4 sequence (P10721 26-976): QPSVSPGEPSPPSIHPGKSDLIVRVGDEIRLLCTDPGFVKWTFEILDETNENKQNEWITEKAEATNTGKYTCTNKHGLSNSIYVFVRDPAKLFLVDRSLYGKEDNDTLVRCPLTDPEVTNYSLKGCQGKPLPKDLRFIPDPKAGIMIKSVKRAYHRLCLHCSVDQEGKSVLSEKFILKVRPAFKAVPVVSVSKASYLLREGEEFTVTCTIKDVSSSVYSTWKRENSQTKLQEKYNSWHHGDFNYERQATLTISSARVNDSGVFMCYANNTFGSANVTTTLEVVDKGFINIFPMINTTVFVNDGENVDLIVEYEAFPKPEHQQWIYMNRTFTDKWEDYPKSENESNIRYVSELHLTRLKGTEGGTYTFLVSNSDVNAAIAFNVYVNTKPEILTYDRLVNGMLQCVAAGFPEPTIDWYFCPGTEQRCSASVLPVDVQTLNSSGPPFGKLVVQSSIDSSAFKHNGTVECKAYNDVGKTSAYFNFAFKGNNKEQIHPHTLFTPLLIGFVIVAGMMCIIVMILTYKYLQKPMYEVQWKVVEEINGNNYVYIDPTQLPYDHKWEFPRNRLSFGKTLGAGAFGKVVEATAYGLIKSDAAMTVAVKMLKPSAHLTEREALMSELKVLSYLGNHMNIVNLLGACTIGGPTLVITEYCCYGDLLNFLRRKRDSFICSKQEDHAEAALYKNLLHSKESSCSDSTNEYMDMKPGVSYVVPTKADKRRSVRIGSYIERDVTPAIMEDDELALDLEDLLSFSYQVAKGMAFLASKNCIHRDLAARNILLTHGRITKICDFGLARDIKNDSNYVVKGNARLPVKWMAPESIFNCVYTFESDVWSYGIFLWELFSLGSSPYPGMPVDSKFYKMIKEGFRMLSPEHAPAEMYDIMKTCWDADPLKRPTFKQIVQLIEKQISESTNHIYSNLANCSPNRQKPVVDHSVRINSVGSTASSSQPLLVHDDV
T3 sequence (Q8IU85 whole entry): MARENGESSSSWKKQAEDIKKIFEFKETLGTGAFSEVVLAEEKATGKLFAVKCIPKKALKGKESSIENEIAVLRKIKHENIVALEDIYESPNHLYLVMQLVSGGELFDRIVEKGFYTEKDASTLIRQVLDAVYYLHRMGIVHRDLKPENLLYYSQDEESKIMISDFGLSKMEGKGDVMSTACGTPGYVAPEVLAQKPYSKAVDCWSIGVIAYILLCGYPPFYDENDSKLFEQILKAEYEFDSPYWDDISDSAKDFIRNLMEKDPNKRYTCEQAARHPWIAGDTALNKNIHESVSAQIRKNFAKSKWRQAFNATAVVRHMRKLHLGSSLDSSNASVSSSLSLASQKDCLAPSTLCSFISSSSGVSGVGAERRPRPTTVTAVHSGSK
T2 sequence (O60331 whole entry): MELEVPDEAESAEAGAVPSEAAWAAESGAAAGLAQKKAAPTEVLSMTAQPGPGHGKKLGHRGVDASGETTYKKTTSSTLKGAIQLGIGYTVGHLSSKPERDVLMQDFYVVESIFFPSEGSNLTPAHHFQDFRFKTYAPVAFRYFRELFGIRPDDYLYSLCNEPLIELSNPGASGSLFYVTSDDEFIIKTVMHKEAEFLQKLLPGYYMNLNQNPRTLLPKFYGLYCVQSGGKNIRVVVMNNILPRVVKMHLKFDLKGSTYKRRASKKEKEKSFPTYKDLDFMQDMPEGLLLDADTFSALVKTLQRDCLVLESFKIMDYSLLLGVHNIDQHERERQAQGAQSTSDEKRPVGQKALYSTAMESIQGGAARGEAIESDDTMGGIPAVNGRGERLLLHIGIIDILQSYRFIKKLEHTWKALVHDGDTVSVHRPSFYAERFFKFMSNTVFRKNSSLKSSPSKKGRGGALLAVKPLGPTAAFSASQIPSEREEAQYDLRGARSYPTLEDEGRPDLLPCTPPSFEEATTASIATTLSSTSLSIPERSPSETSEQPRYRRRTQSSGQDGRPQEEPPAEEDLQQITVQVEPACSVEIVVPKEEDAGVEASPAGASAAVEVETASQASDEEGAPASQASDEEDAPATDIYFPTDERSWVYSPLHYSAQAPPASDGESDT

COc1cc(C(=O)N2CCC(N3CCN(C)CC3)CC2)ccc1Nc1ncc2c(n1)N1CCc3cccc(c31)C(=O)N2C [Compound 24]
% Ctrl, TESK1 (panel of 442 kinases [1]): 84 % Ctrl
KINOMEscan: PIP5K1C (panel of 442 kinases [2]): 6.3

CCOc1cc(C(=O)N2CCC(N3CCN(C)CC3)CC2)ccc1Nc1ncc2c(n1)N(C1CCCC1)c1ccccc1C(=O)N2C [Compound 26]
% Ctrl, TESK1 (panel of 442 kinases [1]): 100 % Ctrl
KINOMEscan: CAMK1D (panel of 442 kinases [3]): 61
KINOMEscan: KIT (panel of 442 kinases [4]): 100
KINOMEscan: PIP5K1C (panel of 442 kinases [2]): 100

COc1cc(C(=O)N2CCC(N3CCN(C)CC3)CC2)ccc1Nc1ncc2c(n1)N(C1CCCC1)c1ccccc1C(=O)N2C [Compound 25, 11-cyclopentyl-2-((2-methoxy-4-(4-(4-methylpiperazin-1-yl)piperidine-1-carbonyl)phenyl)amino)-5-methyl-5H-benzo[e]pyrimido[5,4-b][1,4]diazepin-6(11H)-one]
% Ctrl, TESK1 (panel of 442 kinases [1]): 100 % Ctrl
KINOMEscan: CAMK1D (panel of 442 kinases [3]): 77
KINOMEscan: KIT (panel of 442 kinases [4]): 91
KINOMEscan: PIP5K1C (panel of 442 kinases [2]): 100

COc1cc(C(=O)N2CCC(N3CCN(C)CC3)CC2)ccc1Nc1ncc2c(n1)N(C)c1ccccc1C(=O)N2C [15 (LRRK2-IN-1)]
% Ctrl, TESK1 (panel of 442 kinases [1]): 82 % Ctrl
KINOMEscan: CAMK1D (panel of 442 kinases [3]): 69
KINOMEscan: KIT (panel of 442 kinases [4]): 100
KINOMEscan: PIP5K1C (panel of 442 kinases [2]): 96

Reference: publication PMC3914206
